Consider 18 compounds from patent US20130109718A1, “1-CYCLOALKYL- OR 1-HETEROCYCLYL-HYDROXYIMINO-3-PHENYL-PROPANES” (Hoffmann-La Roche Inc., priority 2011, published 2013).

The assay has as its target T1, human GPBAR1 receptor (Homo sapiens, UniProt Q8TDU6).
T1 construct: expressed in transfected cells
T1 sequence (Q8TDU6 1-330): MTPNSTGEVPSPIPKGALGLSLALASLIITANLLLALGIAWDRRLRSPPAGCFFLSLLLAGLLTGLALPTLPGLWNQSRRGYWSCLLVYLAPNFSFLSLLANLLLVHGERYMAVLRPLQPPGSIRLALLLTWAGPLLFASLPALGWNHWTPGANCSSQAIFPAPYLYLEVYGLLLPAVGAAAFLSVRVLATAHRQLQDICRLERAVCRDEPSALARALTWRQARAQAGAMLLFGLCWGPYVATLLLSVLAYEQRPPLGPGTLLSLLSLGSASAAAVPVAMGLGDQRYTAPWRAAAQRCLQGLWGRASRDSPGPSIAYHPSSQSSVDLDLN
Briefly: functional cAMP assay in CHO-dhfr(minus) cells expressing human GPBAR1 receptors. It counts as cell-based. The note with it: CHO-dhfr(minus) cells expressing human GPBAR1, 30 min at 30° C. From the text:
The cDNA of the human GPBAR1 receptor (Genbank: NM_170699 with the exception of a silent C:G mutation at position 339 from the start codon) was amplified by polymerase chain reaction (PCR) from human cDNA and inserted into pCineo (Promega) by standard methods (Current Protocols in Molecular Biology, Wiley Press, ed. Ausubel et al.). The final clone was verified by DNA sequence analysis. The plasmid was transfected into CHO cells deficient in dihydrofolate reductase activity (CHO-dhfr-) using Lipofectamine plus (Invitrogen). Clones were isolated in limited dilution conditions and identified by activities in the cAMP assay using lithocholic acid as agonist. A clonal cell line displaying the greatest activity in cAMP increases was selected and identified as giving consistently good responses for up to at least 20 passages.
CHO-dhfr(minus) cells expressing human GPBAR1 receptors are seeded 17-24 hours prior to the experiment 50.000 cells per well in a black 96 well plate with flat clear bottom (Corning Costar #3904) in DMEM (Invitrogen No. 31331), 1×HT supplement, with 10% fetal calf serum and incubated at 5% CO2 and 37° C. in a humidified incubator. The growth medium was exchanged with Krebs Ringer Bicarbonate buffer with 1 mM IBMX and incubated at 30° C. for 30 min. Compounds were added to a final assay volume of 100 μl and incubated for 30 min at 30° C. The assay was stopped by the addition of 50 μl lysis reagent (Tris, NaCl, 1.5% Triton X100, 2.5% NP40, 10% NaN3) and 50 μl detection solutions (20 μM mAb Alexa700-cAMP 1:1, and 48 μM Ruthenium-2-AHA-cAMP) and shaken for 2 h at room temperature. The time-resolved energy transfer is measured by a TRF reader (Evotec Technologies GmbH, Hamburg Germany), equipped with a ND:YAG laser as excitation source. The plate is measured twice with the excitation at 355 nm and at the emission with a delay of 100 ns and a gate of 100 ns, total exposure time 10 s at 730 (bandwidth 30 nm) or 645 nm (bandwidth 75 nm), respectively. The measured signal at 730 nm has to be corrected for the ruthenium background, the direct excitation of Alexa and the buffer control. The FRET signal is calculated as follows: FRET=T730-Alexa730-P(T645-B645) with P=Ru730-B730/Ru645-B645, where T730 is the test well measured at 730 nM, T645 is the test well measured at 645 nm, B730 and B645 are the buffer controls at 730 nm and 645 nm, respectively. cAMP content is determined from the function of a standard curve spanning from 10 μM to 0.13 nM cAMP.
EC50 values were determined using Activity Base analysis (ID Business Solution, Limited). The EC50 values for a wide range of bile acids generated from this assay were in agreement with the values published in the scientific literature. Specificity for GPBAR1 was tested in non-transfected CHO cells in the same assay as above.
(cAMP levels reflect the balance of adenylyl cyclase and phosphodiesterase activity.)

By EC50 is commonly meant the concentration needed to bring the measured effect to its halfway point. Lower therefore signals greater potency. With `Cc1ccccc1[C@H](C/C(=N\O)C1CCC(=O)N(C)C1)c1ccc(S(C)(=O)=O)cc1` (mixture of isomers) [Example 1, 5-((R,E)-1-(Hydroxyimino)-3-(4-(methylsulfonyl)phenyl)-3-o-tolylpropyl)-1-methylpiperidin-2-one], a half-maximal effect (EC50) was put at 118 nM.
In turn, `Cc1ccccc1[C@H](C/C(=N\O)C1CCC(=O)N(C)C1)c1ccc(S(C)(=O)=O)cc1` (single isomer, unassigned) [Example 3] gave an EC50 of 145 nM.
To `Cc1ccccc1[C@H](C/C(=N\O)C1CCC(=O)N(C)C1)c1ccc(S(C)(=O)=O)cc1` (single isomer, unassigned) [Example 4] belongs 29 nM.
In the case of `Cc1ccccc1[C@H](C/C(=N/O)C1CCC(=O)N(C)C1)c1ccc(S(C)(=O)=O)cc1` (stereo partly drawn) [Example 2, 5-((R,Z)-1-(hydroxyimino)-3-(4-(methylsulfonyl)phenyl)-3-o-tolylpropyl)-1-methylpiperidin-2-one] it was 8670 nM; in that of `Cc1ccccc1[C@H](C/C(=N\O)C1CCC(=O)N(C)C1)c1ccc(N2CCC(C(=O)O)CC2)cc1` (stereo partly drawn) [Example 5, Sodium 1-(4-((1R,E)-3-(hydroxyimino)-3-(1-methyl-6-oxopiperidin-3-yl)-1-o-tolylpropyl)phenyl)piperidine-4-carboxylate], 42 nM.
To `Cc1ccccc1[C@H](C/C(=N\O)C1CCC(=O)N(C)C1)c1ccccc1` (stereo partly drawn) [Example 6, 5-((R,E)-1-(Hydroxyimino)-3-phenyl-3-o-tolylpropyl)-1-methylpiperidin-2-one] belongs 51 nM; to `Cc1ccccc1[C@H](C/C(=N\O)C1CCC(=O)N(C)C1)c1ccc(-c2ccc(C(=O)O)cc2)cc1` (stereo partly drawn) [Example 7, 4′-((1R,E)-3-(Hydroxyimino)-3-(1-methyl-6-oxopiperidin-3-yl)-1-o-tolylpropyl)biphenyl-4-carboxylic acid], 558 nM.
Compound `CC(=O)N1CCC(/C(CC(c2ccc(Br)cc2)c2ccccc2C)=N/O)CC1` (stereo not drawn) [Example 8, (E)-1-(4-(3-(4-Bromophenyl)-1-(hydroxyimino)-3-o-tolylpropyl)piperidin-1-yl)ethanone] had an EC50 of 8270 nM.
For the compound `Cc1ccccc1C(C/C(=N\O)C1CCOCC1)c1ccc(Br)cc1` (stereo not drawn) [Example 9, (E)-3-(4-Bromophenyl)-1-(tetrahydro-2H-pyran-4-yl)-3-o-tolylpropan-1-one oxime], the EC50 is 118 nM.
To `CS(=O)(=O)c1ccc(C(C/C(=N\O)C2CCOCC2)c2ccccc2)cc1` (stereo not drawn) [Example 10, (E)-3-(4-(Methylsulfonyl)phenyl)-3-phenyl-1-(tetrahydro-2H-pyran-4-yl)propan-1-one oxime] belongs 799 nM; to `Cc1ccccc1C(C/C(=N\O)C1CCSCC1)c1ccc(Br)cc1` (stereo not drawn) [Example 11, (E)-3-(4-Bromophenyl)-1-(tetrahydro-2H-thiopyran-4-yl)-3-o-tolylpropan-1-one oxime], 9950 nM; to `Cc1ccccc1C(C/C(=N\O)C1CCS(=O)(=O)CC1)c1ccc(Br)cc1` (stereo not drawn) [Example 12, 3-(4-Bromo-phenyl)-1-(1,1-dioxo-hexahydro-thiopyran-4-yl)-3-o-tolyl-propan-1-one oxime], 9730 nM.
In the case of `Cc1ccccc1C(C/C(=N\O)[C@H]1CC[C@H](O)CC1)c1ccc(Br)cc1` (stereo partly drawn) [Example 13, (E)-3-(4-Bromophenyl)-1-(trans-4-hydroxycyclohexyl)-3-o-tolylpropan-1-one oxime] it was 2000 nM.
Compound `Cc1ccccc1C(C/C(=N\O)C1CCC(=O)CC1)c1ccc(Br)cc1` (stereo not drawn) [Example 14, (E)-4-(3-(4-bromophenyl)-1-(hydroxyimino)-3-o-tolylpropyl)cyclohexanone] yielded an EC50 of 601 nM.
On to `Cc1ccccc1C(C/C(=N\O)C1CCC(O)CC1)c1ccc(S(C)(=O)=O)cc1` (stereo not drawn) [Example 15, (E)-1-(4-Hydroxycyclohexyl)-3-(4-(methylsulfonyl)phenyl)-3-o-tolylpropan-1-one oxime], for which a half-maximal effect (EC50) was put at 680 nM.
In the case of `Cc1ccccc1C(C/C(=N/O)C1CCC(O)CC1)c1ccc(S(C)(=O)=O)cc1` (stereo not drawn) [Example 16, (Z)-1-(4-hydroxycyclohexyl)-3-(4-(methylsulfonyl)phenyl)-3-o-tolylpropan-1-one oxime] it was 7720 nM.
The compound `Cc1ccccc1C(C/C(=N\O)[C@H]1CC[C@](C)(O)CC1)c1ccc(S(C)(=O)=O)cc1` (stereo partly drawn) [Example 17, (E)-1-((1r,4r)-4-Hydroxy-4-methylcyclohexyl)-3-(4-(methylsulfonyl)phenyl)-3-o-tolylpropan-1-one oxime] displayed an EC50 of 9810 nM.
As to `Cc1ccccc1C(C/C(=N\O)C1CC(O)C1)c1ccc(Br)cc1` (stereo not drawn) [Example 18, (E)-3-(4-Bromophenyl)-1-(3-hydroxycyclobutyl)-3-o-tolylpropan-1-one oxime], the EC50 was determined as 3850 nM.
